This note sets out measurements from US20250230155A1 (Vanderbilt University, priority 2021, published 2025).

In the assay the target is T1, human mAChR M4 (Homo sapiens, UniProt P08173).
T1 construct: expressed in transfected cells
T1 sequence (P08173 1-479): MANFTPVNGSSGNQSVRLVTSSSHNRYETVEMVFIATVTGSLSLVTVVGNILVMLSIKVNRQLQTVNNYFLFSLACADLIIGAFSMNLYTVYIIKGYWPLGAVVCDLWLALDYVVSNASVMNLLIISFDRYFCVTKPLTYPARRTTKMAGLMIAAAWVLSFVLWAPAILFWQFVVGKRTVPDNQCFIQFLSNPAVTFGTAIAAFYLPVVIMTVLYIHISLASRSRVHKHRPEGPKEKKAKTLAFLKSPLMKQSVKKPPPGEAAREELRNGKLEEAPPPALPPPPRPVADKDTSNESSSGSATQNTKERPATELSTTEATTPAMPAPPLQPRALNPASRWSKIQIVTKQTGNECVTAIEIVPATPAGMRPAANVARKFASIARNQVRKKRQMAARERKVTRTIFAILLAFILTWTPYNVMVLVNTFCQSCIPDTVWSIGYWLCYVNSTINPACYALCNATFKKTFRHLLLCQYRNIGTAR
The assay can be described thus: mAChR M4 cell-based functional assay (calcium mobilization, CHO-K1 hM4-Gqi5 cells). The conditions noted are these: for Emax at 30 µM: CHO-K1, % ACh maximum at 30 μM, human M4; for EC50: positive allosteric modulator activity, increase in the EC20 acetylcholine response, CHO-K1 hM4-Gqi5 cells, read-out: Human M4 EC50. In a few lines:
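CHO-K1 cells stably expressing human M4 with chimeric Gqi5, loaded with Fluo-4 AM; compounds given as 11-point 1:3 curves and calcium flux read on FDSS at 1 Hz. Acetylcholine EC20 added at 144 s, EC80 at 230 s; agonist, PAM (EC20 potentiation) and antagonist (EC80 inhibition) EC50/Emax from four-parameter fits.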

Molecules are shown by their SMILES. Some results are limits rather than exact numbers.

With `COCc1nc(Cl)c(C)c(N2CCc3ncc(C(F)(F)F)cc3C2)n1` [compound 214, 6-(6-chloro-2-(methoxymethyl)-5-methylpyrimidin-4-yl)-3-(trifluoromethyl)-5,6,7,8-tetrahydro-1,6-naphthyridine], the Emax at 30 µM came to 103% and the EC50 came to 709 nM.
The matching figures for `Cc1cc(C(=O)NCc2ccc[nH]2)cnc1N1CCc2ncccc2C1` [compound 163, 6-(7,8-dihydro-5H-1,6-naphthyridin-6-yl)-5-methyl-N-(1H-pyrrol-2-ylmethyl)pyridine-3-carboxamide]: 65% and 2660 nM.
As for `Cc1cc(C(=O)N2CC(Cl)C2)nnc1N1CCc2ncc(N3CCCn4nccc43)cc2C1` [Example 527, (3-chloroazetidin-1-yl)(6-(3-(6,7-dihydropyrazolo[1,5-a]pyrimidin-4(5H)-yl)-7,8-dihydro-1,6-naphthyridin-6(5H)-yl)-5-methylpyridazin-3-yl)methanone], the Emax at 30 µM was found to be 129% and the EC50 is 16 nM.
For `Cc1c(C#N)nnc(N2CCc3ncc(Nc4cc(Cl)cnc4F)cc3C2)c1C` [compound 82, 6-[3-[(5-chloro-2-fluoro-3-pyridyl)amino]-7,8-dihydro-5H-1,6-naphthyridin-6-yl]-4,5-dimethyl-pyridazine-3-carbonitrile], the Emax at 30 µM came to 82% and the EC50 stood at 157 nM.
Turning to `Cc1cc(C(=O)N2CCC2)nnc1N1CCc2ncc(N3CCCn4nccc43)cc2C1` [Example 545, azetidin-1-yl(6-(3-(6,7-dihydropyrazolo[1,5-a]pyrimidin-4(5H)-yl)-7,8-dihydro-1,6-naphthyridin-6(5H)-yl)-5-methylpyridazin-3-yl)methanone], the Emax at 30 µM amounted to 125% and the EC50 stood at 46 nM.
For the compound `Cc1cc(Nc2cnc3c(c2)CN(c2ncc(C#N)cc2C)CC3)c(F)cn1` [Example 616, 6-(3-((5-fluoro-2-methylpyridin-4-yl)amino)-7,8-dihydro-1,6-naphthyridin-6(5H)-yl)-5-methylnicotinonitrile], the Emax at 30 µM turned out to be 95% and the EC50 turned out to be 4 nM.
Taken in the same sequence, the figures for `Cc1cc(C(=O)NCc2cnc3ccccc3c2)cnc1N1CCc2ncc(C(F)(F)F)cc2C1` [Example 446, 5-methyl-N-(quinolin-3-ylmethyl)-6-(3-(trifluoromethyl)-7,8-dihydro-1,6-naphthyridin-6(5H)-yl)nicotinamide] were 87% and 1140 nM.
Taken in the same sequence, the figures for `Cc1c(Cl)nc(C2CC2)nc1N1CCc2ncc(Nc3cccc(F)c3F)cc2C1` [compound 91, 6-(6-chloro-2-cyclopropyl-5-methyl-pyrimidin-4-yl)-N-(2,3-difluorophenyl)-7,8-dihydro-5H-1,6-naphthyridin-3-amine] were 67% and 5570 nM.
With `Cc1cc(C#N)cnc1N1CCc2ncc(Nc3cc(F)ccc3F)cc2C1` [compound 110, 6-[3-(2,5-difluoroanilino)-7,8-dihydro-5H-1,6-naphthyridin-6-yl]-5-methyl-pyridine-3-carbonitrile], the maximal effect (Emax) at 30 µM stood at 95% and the concentration giving a half-maximal response (EC50) came to 167 nM.
Regarding `Fc1ccccc1Oc1cnc2c(c1)CN(c1nc(Cl)nc3c1COC3)CC2` [compound 290, 2-chloro-4-(3-(2-fluorophenoxy)-7,8-dihydro-1,6-naphthyridin-6(5H)-yl)-5,7-dihydrofuro[3,4-d]pyrimidine], the EC50 came out at 991 nM.
In the case of `Cc1cc(C#N)cnc1N1CCc2ncc(-c3ccnc(C4CC4)c3)cc2C1` [Example 339, 6-(3-(2-cyclopropylpyridin-4-yl)-7,8-dihydro-1,6-naphthyridin-6(5H)-yl)-5-methylnicotinonitrile], the Emax at 30 µM was 90% and the EC50 was 277 nM.
The matching figures for `Cc1cc(C(=O)NCc2ncc(C(F)(F)F)cn2)cnc1N1CCc2ncccc2C1` [compound 145, 6-(7,8-dihydro-5H-1,6-naphthyridin-6-yl)-5-methyl-N-[[5-(trifluoromethyl)pyrimidin-2-yl]methyl]pyridine-3-carboxamide]: 50% and not below 10000 nM.
Taken in the same sequence, the figures for `Cc1cc(C#N)cnc1N1Cc2cc(C(F)(F)F)cnc2CC1C` (stereo not shown) [Example 366, 5-methyl-6-(7-methyl-3-(trifluoromethyl)-7,8-dihydro-1,6-naphthyridin-6(5H)-yl)nicotinonitrile] were 96% and 305 nM.
On to `Cc1nc(Cl)c(C)c(N2Cc3cc(Br)cnc3C(C)(C)C2)n1` [compound 236, 3-bromo-6-(6-chloro-2,5-dimethylpyrimidin-4-yl)-8,8-dimethyl-5,6,7,8-tetrahydro-1,6-naphthyridine], for which the EC50 is not below 10000 nM. Besides, the Emax (CHO-K1) was 29%.
In the case of `Cc1cc(C#N)cnc1N1CCc2ncc(N3CCO[C@@H](c4ccccc4)C3)cc2C1` [Example 378, (S)-5-methyl-6-(3-(2-phenylmorpholino)-7,8-dihydro-1,6-naphthyridin-6(5H)-yl)nicotinonitrile], the Emax at 30 µM was determined as 62% and the EC50 was found to be 4310 nM.
For the compound `Cc1cc(C#N)cnc1N1CCc2ncc(N3CCCC3)cc2C1` [Example 1], the Emax at 30 µM came to 86% and the EC50 came out at 286 nM.
The matching figures for `Cc1cc(C(=O)NCc2cn3ccccc3n2)cnc1N1CCc2ncccc2C1` [compound 120]: 64% and 2680 nM.
For the compound `Cc1cc(C(=O)NCc2ccc(C(F)(F)F)cn2)cnc1N1CCc2ncccc2C1` [compound 144, 6-(7,8-dihydro-5H-1,6-naphthyridin-6-yl)-5-methyl-N-[[5-(trifluoromethyl)-2-pyridyl]methyl]pyridine-3-carboxamide], the Emax at 30 µM was determined as 61% and the EC50 was found to be 6090 nM.
In the case of `Cc1c(C(=O)NCc2csc3ccccc23)nnc(N2CCc3ncc(C(F)(F)F)cc3C2)c1C` [Example 463, N-(benzo[b]thiophen-3-ylmethyl)-4,5-dimethyl-6-(3-(trifluoromethyl)-7,8-dihydro-1,6-naphthyridin-6(5H)-yl)pyridazine-3-carboxamide], the Emax at 30 µM was determined as 101% and the EC50 worked out at 422 nM.
For `Cc1cc(C#N)nnc1N1CCc2ncc(-c3cnn(C4CC4)c3)cc2C1` [Example 361, 6-(3-(1-cyclopropyl-1H-pyrazol-4-yl)-7,8-dihydro-1,6-naphthyridin-6(5H)-yl)-5-methylpyridazine-3-carbonitrile], the Emax at 30 µM stood at 115% and the EC50 stood at 786 nM.
For `Cc1nc(Cl)c(C)c(N2CCc3ncc(Nc4cccc(F)c4F)cc3C2)n1` [compound 86, 6-(6-chloro-2,5-dimethyl-pyrimidin-4-yl)-N-(2,3-difluorophenyl)-7,8-dihydro-5H-1,6-naphthyridin-3-amine], the Emax at 30 µM stood at 84% and the EC50 was determined as 654 nM.
As to `Cc1nc(Cl)c(C)c(N2CCc3ncc(Oc4ccccc4F)cc3C2)n1` [compound 204, 6-(6-chloro-2,5-dimethyl-pyrimidin-4-yl)-3-(2-fluorophenoxy)-7,8-dihydro-5H-1,6-naphthyridine], the Emax at 30 µM came to 90% and the EC50 turned out to be 328 nM.
Taken in the same sequence, the figures for `Cc1cc(C(=O)NCc2cccnc2)cnc1N1CCc2ncccc2C1` [compound 60, 6-(7,8-dihydro-5H-1,6-naphthyridin-6-yl)-5-methyl-N-(3-pyridylmethyl)pyridine-3-carboxamide] were 61% and 4720 nM.
Taken in the same sequence, the figures for `Cc1c(C#N)nnc(N2CCc3ncc(Nc4ccccc4C(F)(F)F)cc3C2)c1C` [compound 43, 4,5-dimethyl-6-[3-[2-(trifluoromethyl)anilino]-7,8-dihydro-5H-1,6-naphthyridin-6-yl]pyridazine-3-carbonitrile] were 71% and 1160 nM.
Taken in the same sequence, the figures for `CNC(=O)c1ccc(CNC(=O)c2cnc(N3CCc4ncccc4C3)c(C)c2)cc1` [compound 149, 6-(7,8-dihydro-5H-1,6-naphthyridin-6-yl)-5-methyl-N-[[4-(methylcarbamoyl)phenyl]methyl] pyridine-3-carboxamide] were 56% and not below 10000 nM.
Take `Cc1nc(C)c(C)c(N2CCc3ncc(Nc4cccnc4F)cc3C2)n1` [compound 240, N-(2-fluoropyridin-3-yl)-6-(2,5,6-trimethylpyrimidin-4-yl)-5,6,7,8-tetrahydro-1,6-naphthyridin-3-amine]: the maximum response (Emax) at 30 µM is 61% and the EC50 amounted to 154 nM.
The matching figures for `Cc1c(C#N)nnc(N2CCc3ncc(-c4ccc(N5CC6CC5CO6)nc4)cc3C2)c1C` (stereo not shown) [Example 333, 6-(3-(6-(2-oxa-5-azabicyclo[2.2.1]heptan-5-yl)pyridin-3-yl)-7,8-dihydro-1,6-naphthyridin-6(5H)-yl)-4,5-dimethylpyridazine-3-carbonitrile]: 72% and 817 nM.
The matching figures for `Cc1c(C(=O)NCc2ccccn2)nnc(N2CCc3ncccc3C2)c1C` [compound 137, 6-(7,8-dihydro-5H-1,6-naphthyridin-6-yl)-4,5-dimethyl-N-(2-pyridylmethyl)pyridazine-3-carboxamide]: 91% and 3380 nM.
